Key:
[1] = system: SKOV3 estrogen-positive ovarian adenocarcinoma cells; test: Amino acid uptake and inhibition in SKOV3 cells; format: cell-based, human; details: SKOV3, 30 minutes incubation
A549 tumor xenograft = test: Biodistribution in A549 tumor-bearing SCID mice; format: in vivo; details: listed as (S)-[^18F]FAMP 1
DU145 tumor xenograft = test: Biodistribution in DU145 tumor-bearing SCID mice; format: in vivo; details: listed as (S)-[^18F]FAMP 1
[2] = system: MDA MB468 tumor xenograft; test: Biodistribution in MDA MB468 tumor-bearing SCID mice; format: in vivo
[3] = system: SCID mice xenograft tumor models; format: in vivo; details: in most cases, over tumors and time points
[4] = system: rat orthotopic brain tumor model; details: rat orthotopic brain tumor model, 60 min; cited from earlier work
[5] = 15 min post injection, listed as (S)-[^18F]FAMP 1
[6] = 30 min post injection, listed as (S)-[^18F]FAMP 1
[7] = 60 min post injection, listed as (S)-[^18F]FAMP 1
[8] = 120 min post injection, listed as (S)-[^18F]FAMP 1

CC(N)(C[18F])C(=O)O [(S)-[^18F]1] [2-amino-3-[^18F]fluoro-2-methylpropanoic acid]
Cell uptake ([1]; 10 mM BCH): 1.7±0.1 % ID/5×10^5 cells
Cell uptake ([1]; 10 mM MeAIB): 2.9±0.2 % ID/5×10^5 cells
Cell uptake ([1]; Control (no inhibitor)): 3.9±0.2 % ID/5×10^5 cells
uptake in blood (A549 tumor xenograft; 15 min post injection): 3.9±0.6 %ID/g
uptake in bone (A549 tumor xenograft; 15 min post injection): 2.6±0.8 %ID/g
uptake in brain (A549 tumor xenograft; 15 min post injection): 0.5±0.1 %ID/g
uptake in heart (A549 tumor xenograft; 15 min post injection): 3.2±0.7 %ID/g
uptake in kidney (A549 tumor xenograft; 15 min post injection): 29±5.7 %ID/g
uptake in liver (A549 tumor xenograft; 15 min post injection): 3.7±0.5 %ID/g
uptake in lung (A549 tumor xenograft; 15 min post injection): 5.5±2.0 %ID/g
uptake in muscle (A549 tumor xenograft; 15 min post injection): 3.3±0.7 %ID/g
uptake in pancreas (A549 tumor xenograft; 15 min post injection): 42±8.4 %ID/g
uptake in spleen (A549 tumor xenograft; 15 min post injection): 9.0±3.0 %ID/g
uptake in tumor (A549 tumor xenograft; 15 min post injection): 6.7±1.7 %ID/g
uptake in blood (A549 tumor xenograft; 30 min post injection): 3.1±0.6 %ID/g
uptake in bone (A549 tumor xenograft; 30 min post injection): 2.5±0.6 %ID/g
uptake in brain (A549 tumor xenograft; 30 min post injection): 0.6±0.1 %ID/g
uptake in heart (A549 tumor xenograft; 30 min post injection): 3.3±0.4 %ID/g
uptake in kidney (A549 tumor xenograft; 30 min post injection): 21±6.9 %ID/g
uptake in liver (A549 tumor xenograft; 30 min post injection): 3.8±0.6 %ID/g
uptake in lung (A549 tumor xenograft; 30 min post injection): 4.3±1.7 %ID/g
uptake in muscle (A549 tumor xenograft; 30 min post injection): 3.0±0.8 %ID/g
uptake in pancreas (A549 tumor xenograft; 30 min post injection): 39±8.2 %ID/g
uptake in spleen (A549 tumor xenograft; 30 min post injection): 8.4±1.7 %ID/g
uptake in tumor (A549 tumor xenograft; 30 min post injection): 7.9±1.0 %ID/g
uptake in blood (A549 tumor xenograft; 60 min post injection): 2.3±0.1 %ID/g
uptake in bone (A549 tumor xenograft; 60 min post injection): 2.7±0.6 %ID/g
uptake in brain (A549 tumor xenograft; 60 min post injection): 0.8±0.1 %ID/g
uptake in heart (A549 tumor xenograft; 60 min post injection): 3.0±0.4 %ID/g
uptake in kidney (A549 tumor xenograft; 60 min post injection): 17±1.4 %ID/g
uptake in liver (A549 tumor xenograft; 60 min post injection): 3.5±0.4 %ID/g
uptake in lung (A549 tumor xenograft; 60 min post injection): 2.8±1.3 %ID/g
uptake in muscle (A549 tumor xenograft; 60 min post injection): 2.9±0.6 %ID/g
uptake in pancreas (A549 tumor xenograft; 60 min post injection): 33±6.1 %ID/g
uptake in spleen (A549 tumor xenograft; 60 min post injection): 6.5±1.1 %ID/g
uptake in tumor (A549 tumor xenograft; 60 min post injection): 8.3±1.0 %ID/g
uptake in blood (A549 tumor xenograft; 120 min post injection): 2.0±0.4 %ID/g
uptake in bone (A549 tumor xenograft; 120 min post injection): 2.0±0.5 %ID/g
uptake in brain (A549 tumor xenograft; 120 min post injection): 0.8±0.1 %ID/g
uptake in heart (A549 tumor xenograft; 120 min post injection): 2.7±0.8 %ID/g
uptake in kidney (A549 tumor xenograft; 120 min post injection): 14±1.8 %ID/g
uptake in liver (A549 tumor xenograft; 120 min post injection): 2.8±0.4 %ID/g
uptake in lung (A549 tumor xenograft; 120 min post injection): 3.1±0.9 %ID/g
uptake in muscle (A549 tumor xenograft; 120 min post injection): 2.3±0.4 %ID/g
uptake in pancreas (A549 tumor xenograft; 120 min post injection): 29±2.3 %ID/g
uptake in spleen (A549 tumor xenograft; 120 min post injection): 6.0±1.7 %ID/g
uptake in tumor (A549 tumor xenograft; 120 min post injection): 6.5±0.8 %ID/g
uptake in blood (DU145 tumor xenograft; 15 min post injection): 5.1±1.1 %ID/g
uptake in bone (DU145 tumor xenograft; 15 min post injection): 2.4±1.1 %ID/g
uptake in brain (DU145 tumor xenograft; 15 min post injection): 0.6±0.1 %ID/g
uptake in heart (DU145 tumor xenograft; 15 min post injection): 3.2±1.2 %ID/g
uptake in kidney (DU145 tumor xenograft; 15 min post injection): 36±5.1 %ID/g
uptake in liver (DU145 tumor xenograft; 15 min post injection): 3.4±0.6 %ID/g
uptake in lung (DU145 tumor xenograft; 15 min post injection): 6.5±1.5 %ID/g
uptake in muscle (DU145 tumor xenograft; 15 min post injection): 4.0±0.8 %ID/g
uptake in pancreas (DU145 tumor xenograft; 15 min post injection): 55±8.8 %ID/g
uptake in spleen (DU145 tumor xenograft; 15 min post injection): 7.9±2.3 %ID/g
uptake in tumor (DU145 tumor xenograft; 15 min post injection): 3.2±2.5 %ID/g
uptake in blood (DU145 tumor xenograft; 30 min post injection): 2.9±1.1 %ID/g
uptake in bone (DU145 tumor xenograft; 30 min post injection): 2.2±0.5 %ID/g
uptake in brain (DU145 tumor xenograft; 30 min post injection): 0.5±0.2 %ID/g
uptake in heart (DU145 tumor xenograft; 30 min post injection): 3.2±1.3 %ID/g
uptake in kidney (DU145 tumor xenograft; 30 min post injection): 21±6.2 %ID/g
uptake in liver (DU145 tumor xenograft; 30 min post injection): 2.9±0.9 %ID/g
uptake in lung (DU145 tumor xenograft; 30 min post injection): 5.0±2.6 %ID/g
uptake in muscle (DU145 tumor xenograft; 30 min post injection): 2.9±0.2 %ID/g
uptake in pancreas (DU145 tumor xenograft; 30 min post injection): 37±13 %ID/g
uptake in spleen (DU145 tumor xenograft; 30 min post injection): 6.6±1.1 %ID/g
uptake in tumor (DU145 tumor xenograft; 30 min post injection): 1.8±0.4 %ID/g
uptake in blood (DU145 tumor xenograft; 60 min post injection): 2.4±0.04 %ID/g
uptake in bone (DU145 tumor xenograft; 60 min post injection): 2.1±0.2 %ID/g
uptake in brain (DU145 tumor xenograft; 60 min post injection): 0.6±0.1 %ID/g
uptake in heart (DU145 tumor xenograft; 60 min post injection): 3.5±0.3 %ID/g
uptake in kidney (DU145 tumor xenograft; 60 min post injection): 17±0.6 %ID/g
uptake in liver (DU145 tumor xenograft; 60 min post injection): 3.3±0.5 %ID/g
uptake in lung (DU145 tumor xenograft; 60 min post injection): 3.4±0.8 %ID/g
uptake in muscle (DU145 tumor xenograft; 60 min post injection): 2.5±0.3 %ID/g
uptake in pancreas (DU145 tumor xenograft; 60 min post injection): 36±3.1 %ID/g
uptake in spleen (DU145 tumor xenograft; 60 min post injection): 9.2±5.1 %ID/g
uptake in tumor (DU145 tumor xenograft; 60 min post injection): 3.4±1.7 %ID/g
uptake in blood (DU145 tumor xenograft; 120 min post injection): 1.8±0.4 %ID/g
uptake in bone (DU145 tumor xenograft; 120 min post injection): 1.6±0.4 %ID/g
uptake in brain (DU145 tumor xenograft; 120 min post injection): 0.6±0.1 %ID/g
uptake in heart (DU145 tumor xenograft; 120 min post injection): 3.0±0.7 %ID/g
uptake in kidney (DU145 tumor xenograft; 120 min post injection): 13±1.7 %ID/g
uptake in liver (DU145 tumor xenograft; 120 min post injection): 2.8±0.7 %ID/g
uptake in lung (DU145 tumor xenograft; 120 min post injection): 3.3±1.1 %ID/g
uptake in muscle (DU145 tumor xenograft; 120 min post injection): 1.7±0.5 %ID/g
uptake in pancreas (DU145 tumor xenograft; 120 min post injection): 28±7.4 %ID/g
uptake in spleen (DU145 tumor xenograft; 120 min post injection): 5.3±1.8 %ID/g
uptake in tumor (DU145 tumor xenograft; 120 min post injection): 3.5±0.7 %ID/g
uptake in blood [2, 5]: 4.2±0.3 %ID/g
uptake in bone [2, 5]: 2.5±0.3 %ID/g
uptake in brain [2, 5]: 0.6±0.1 %ID/g
uptake in heart [2, 5]: 3.4±0.3 %ID/g
uptake in kidney [2, 5]: 39±3.3 %ID/g
uptake in liver [2, 5]: 4.8±0.9 %ID/g
uptake in lung [2, 5]: 4.5±1.3 %ID/g
uptake in muscle [2, 5]: 3.9±0.7 %ID/g
uptake in pancreas [2, 5]: 51±10 %ID/g
uptake in spleen [2, 5]: 14±2.8 %ID/g
uptake in tumor [2, 5]: 5.8±0.7 %ID/g
uptake in blood [2, 6]: 3.6±0.4 %ID/g
uptake in bone [2, 6]: 2.4±0.6 %ID/g
uptake in brain [2, 6]: 0.8±0.2 %ID/g
uptake in heart [2, 6]: 3.2±0.3 %ID/g
uptake in kidney [2, 6]: 29±6.1 %ID/g
uptake in liver [2, 6]: 4.7±0.8 %ID/g
uptake in lung [2, 6]: 4.3±1.9 %ID/g
uptake in muscle [2, 6]: 3.4±0.4 %ID/g
uptake in pancreas [2, 6]: 56±7.6 %ID/g
uptake in spleen [2, 6]: 12±4.2 %ID/g
uptake in tumor [2, 6]: 6.1±1.4 %ID/g
uptake in tumor ([2]; 60 min post injection): 4.8±1.2 %ID/g
uptake in blood [2, 7]: 2.9±1.0 %ID/g
uptake in bone [2, 7]: 2.2±0.6 %ID/g
uptake in brain [2, 7]: 0.7±0.1 %ID/g
uptake in heart [2, 7]: 2.9±0.5 %ID/g
uptake in kidney [2, 7]: 20±2.7 %ID/g
uptake in liver [2, 7]: 4.3±0.6 %ID/g
uptake in lung [2, 7]: 2.6±0.6 %ID/g
uptake in muscle [2, 7]: 2.7±0.6 %ID/g
uptake in pancreas [2, 7]: 46±9.5 %ID/g
uptake in spleen [2, 7]: 7.1±0.9 %ID/g
uptake in blood [2, 8]: 1.5±0.1 %ID/g
uptake in bone [2, 8]: 1.0±0.6 %ID/g
uptake in brain [2, 8]: 0.8±0.1 %ID/g
uptake in heart [2, 8]: 2.0±0.2 %ID/g
uptake in kidney [2, 8]: 11±1.4 %ID/g
uptake in liver [2, 8]: 2.6±0.2 %ID/g
uptake in lung [2, 8]: 1.6±0.4 %ID/g
uptake in muscle [2, 8]: 1.3±0.5 %ID/g
uptake in pancreas [2, 8]: 23±6.8 %ID/g
uptake in spleen [2, 8]: 5.6±2.2 %ID/g
uptake in tumor [2, 8]: 5.0±0.4 %ID/g
ratio of tumor to muscle [3]: above 2
brain uptake [4]: 0.06±0.01 %ID/g

Reference: publication PMC4268243 (Nuclear medicine and biology, 2014)
